Values of other authors in patent US20040043089A1, “Buguzhi agent and composition and methods of preparing and administering the same” (priority 2002, published 2004).

details: literature statement

Row | SMILES | Phototoxicity (in words)
1 | Cc1cc2cc3c(C)cc(=O)oc3c(C)c2o1 [Trioxsalen] | weak phototoxicity
2 | O=c1ccc2ccc3occc3c2o1 [angelicin] | only weakly phototoxic
3 | COc1c2ccoc2cc2oc(=O)ccc12 [bergapten, 5-methoxypsoralen] | phototoxic
4 | COc1c2ccoc2c(OC)c2oc(=O)ccc12 [isopimpinellin] | only weakly phototoxic
5 | COc1c2occc2c(OC)c2c(=O)cc(C)oc12 [khellin] | weak phototoxicity
6 | CC(C)=CCc1c(O)ccc2ccc(=O)oc12 [osthenol] | weak phototoxicity
7 | COc1c(C(C)C)oc2cc3oc(=O)ccc3cc12 [peucedanin] | weak phototoxicity
8 | COc1c2occc2cc2ccc(=O)oc12 [xanthotoxin, 8-methoxypsoralen] | phototoxic
